In US6482921B1, “Uridyl peptide antibiotic (UPA) derivatives, their synthesis and use” (Essential Therapeutics, Inc., priority 1999, dated 2002):
Values after ≈ are worked out from the molar mass of the structure shown.

Columns and labels:
[1] = system: Mycobacterium tuberculosis TN565; assay type: cell-based
[2] = system: Mycobacterium tuberculosis TN1618; assay type: cell-based

Structure (SMILES)	MIC TN565 (RESISTANT) [1] [µg/mL]	MIC TN1618 (RESISTANT) [2] [µg/mL]
CC(N)C(=O)N(C)C(C)C(NC(=O)C(Cc1ccc(F)cc1)NC(=O)NC(Cc1c[nH]c2ccccc12)C(=O)O)C(=O)NCC1CC(O)C(n2ccc(=O)[nH]c2=O)O1 [Compound 158, 1-[5′-[(2S,3S)-N^3-L-Alanyl-N^2-[N-[[(1S)-1-carboxy-2-indol-3-ylethyl]carbamoyl]-L-4-fluorophenylalanyl]-N^3-methyl-2,3-diaminobutyramidol-3′,5′-dideoxy-α-L-arabinofuranosyl]uracil]	10 (≈ 12.4 µM)	10 (≈ 12.4 µM)
CC(N)C(=O)N(C)C(C)C(NC(=O)C(Cc1ccc(F)cc1)NC(=O)NC(Cc1ccc(O)cc1)C(=O)O)C(=O)NCC1CC(O)C(n2ccc(=O)[nH]c2=O)O1 [Compound 157, 1-[5′-[(2S,3S)-N^3-L-Alanyl-N^2-[N-[[(1S)-1-carboxy-4-hydroxyphenethyl]carbamoyl]-L-4-fluorophenylalanyl]-N^3-methyl-2,3-diaminobutyramido]-3′,5′-dideoxy-α-L-arabinofuranosyl]uracil]	10 (≈ 12.7 µM)	10 (≈ 12.7 µM)
CC(C)C[C@H](NC(=O)N[C@@H](Cc1c[nH]c2ccccc12)C(=O)O)C(=O)N[C@H](C(=O)NC[C@H]1C[C@@H](O)[C@H](n2ccc(=O)[nH]c2=O)O1)[C@H](C)N(C)C(=O)CN [Compound 109]	10 (≈ 13.5 µM)	10 (≈ 13.5 µM)
CC(N)C(=O)N(C)C(C)C(NC(=O)C(Cc1ccc(C(F)(F)F)cc1)NC(=O)NC(Cc1c[nH]c2ccccc12)C(=O)O)C(=O)NCC1CC(O)C(n2ccc(=O)[nH]c2=O)O1 [Compound 146, 1-[5′-[(2S,3S)-N^3-L-Alanyl-N^2-[N-[[(1S)-1-carboxy-2-indol-3-ylethyl]carbamoyl]-L-4-(trifluoromethyl)phenylalanyl]-N^3-methyl-2,3-diaminobutyramido]-3′,5′-dideoxy-α-L-arabinofuranosyl]uracil]	10 (≈ 11.7 µM)	10 (≈ 11.7 µM)
CC(N)C(=O)N(C)C(C)C(NC(=O)C(Cc1ccccc1)NC(=O)NC(Cc1ccc2ccccc2c1)C(=O)O)C(=O)NCC1CC(O)C(n2ccc(=O)[nH]c2=O)O1 [Compound 133, 1-[5′-[(2S,3S)-N^3-L-Alanyl-N^2-[N-[[(1S)-1-carboxy-2-naphthalenethyl]carbamoyl]-L-phenylalanyl]-N^3-methyl-2,3-diaminobutyramido]-3′,5′-dideoxy-α-L-arabinofuranosyl]uracil]	30 (≈ 37.5 µM)	10 (≈ 12.5 µM)
CSCCC(NC(=O)NC(Cc1ccc(O)cc1)C(=O)O)C(=O)NC(C(=O)NCC1CC(O)C(n2ccc(=O)[nH]c2=O)O1)C(C)N(C)C(=O)C(C)N [Compound 115, 1-[5′[(2S,3S)-N^3-L-Alanyl-N^2-[N-[[(1S)-1-carboxy-4-hydroxyphenethyl)-carbamoyl]-L-methionyl]-N^3-methyl-2,3-diaminobutyramido]-3′,5′-dideoxy-α-L-arabinofuranosyl]uracil]	>30	30 (≈ 40 µM)
CC(C)CC(N)C(=O)N(C)C(C)C(NC(=O)C(Cc1ccccc1)NC(=O)NC(Cc1c[nH]c2ccccc12)C(=O)O)C(=O)NCC1CC(O)C(n2ccc(=O)[nH]c2=O)O1 [Compound 159, 1-[5′-[(2S,3S)-N^2-[N-[[(1S)-1-Carboxy-2-indol-3-ylethyl]carbamoyl]-L-phenylalanyl]l-N^3-L-leucyl-N^3-methyl-2,3-diaminobutyramido]-3′,5′-dideoxy-α-L-arabinofuranosyl]uracil]	30 (≈ 36.1 µM)	10 (≈ 12 µM)
CC(N)C(=O)N(C)C(C)C(NC(=O)C(Cc1ccc(-c2ccccc2)cc1)NC(=O)NC(Cc1c[nH]c2ccccc12)C(=O)O)C(=O)NCC1CC(O)C(n2ccc(=O)[nH]c2=O)O1 [Compound 155, 1-[5′-[(2S,3S)-N^3-L-Alanyl-N^2-[N-[[(1S)-1-carboxy-2-indol-3-ylethyl)carbamoyl]-L-4-biphenylalanyl]-N^3-methyl-2,3-diaminobutyramidol-3′,5′-dideoxy-α-L-arabinofuranosyl]uracil]	10 (≈ 11.5 µM)	10 (≈ 11.5 µM)
C[C@H](NC(=O)N[C@@H](Cc1c[nH]c2ccccc12)C(=O)O)C(=O)N[C@H](C(=O)N/C=C1/C[C@@H](O)[C@H](n2ccc(=O)[nH]c2=O)O1)[C@H](C)N(C)C(=O)[C@@H](N)Cc1cccc(O)c1 [Pacidamycin 4, reference compound]	>30	>30
CC(N)C(=O)N(C)C(C)C(NC(=O)C(Cc1ccccc1)NC(=O)NC(Cc1c[nH]c2ccccc12)C(=O)O)C(=O)NCC1CC(O)C(n2ccc(=O)[nH]c2=O)O1 [Compound 164, 1-[5′-[(2S,3S)-N^3-L-Alanyl-N^2-[N-[[(1S)-1-carboxy-2-indol-3-ylethyl]carbamoyl]-L-phenylalanyl]-N^3-methyl-2,3-diaminobutyramido]-3′,5′-dideoxy-α-L-arabinofuranosyl]uracil]	10 (≈ 12.7 µM)	10 (≈ 12.7 µM)
